The target in assay [1] is GABA-A receptor; anion channel. The experiment in a line: Binding affinity against the BZD site of the Gamma-aminobutyric acid A receptor in rat cerebral cortex using radioligand ([3H]flunitrazepam) assay in the absence of Gamma-aminobutyric acid. It counts as tissue-based.
Assay [2] has as its target GABA-A receptor; anion channel. The experiment in a line: Binding affinity against the BZD site of the Gamma-aminobutyric acid A receptor in rat cerebral cortex using radioligand ([3H]flunitrazepam) assay in the presence of Gamma-aminobutyric acid. The assay is classed as tissue-based.
The species entered for assay [3] is Mus sp. The experiment in a line: Test ability to block the tonic-clonic component of seizures induced by metrazole in mice. It counts as functional.
Assay [4] has as its target T1, GABA-A receptor; anion channel (Rattus norvegicus) (UniProt O09028+P15431+P18506+P18508+P19969+P20236+P23574+P23576+P28471+P28473+P30191+P62813+P63079+P63138+Q91ZM7+Q9ES14). The assay can be described thus: Relative binding in the presence and absence of GABA, (IC50-GABA /IC50+GABA). It counts as protein-complex assay.
Assay [5] addresses T1, GABA-A receptor; anion channel (Rattus norvegicus). The experiment in a line: Ratio of IC50 (no GABA) to IC50 (GABA) was measured as GABA Shift (GS). It counts as protein-complex assay.
Assay [6] can be described thus: Tested for skeletal muscle relaxant activity using horizontal screen assay. It counts as functional.
For assay [7], the species on record is Mus musculus. The experiment in a line: Compound was tested for its ability to block the tonic-clonic component of seizures induced by metrazole in mice; Range = 10-30. The assay is classed as functional.
The species named for assay [8] is Rattus norvegicus. The experiment in a line: Compound was tested for its ability to release (i.e., disinhibit) behavior that had been suppressed by punishment in rats (vogel conflict test). The assay is classed as functional. Particulars: read-out: MED.
The species entered for assay [9] is Rattus norvegicus. The experiment in a line: The compound was tested for its ability to release (i.e., disinhibit) behavior that had been suppressed by punishment in rats (vogel conflict test). The note with it: read-out: MED. It counts as functional.
Assay [10] in a line: Tested for its interaction with ethanol by its ability to potentiate the effect of ethanol on sleep. Particulars: read-out: MED. It counts as functional.
Assay [11] is filed under the species Rattus norvegicus. The experiment in a line: animal or person. The note with it: read-out: MED.
For assay [12], the species on record is Rattus norvegicus. The experiment in a line: animal or person. The note with it: read-out: MED. The source holds these as a separate data set.

Molecules are shown by their SMILES. Values joined by “and” are separate entries in the source; they are usually repeats but may differ in a detail not shown here. Identical values can stand only once. Some results are limits rather than exact numbers.

As a reminder, the IC50 is the midpoint of a concentration-inhibition curve. For orientation: ED50 means the dose that gives a 50% effect, or the effect in half of the subjects. As to `O=C(Nc1ccc(O)cc1)C1=C(O)CCn2c1nc1ccccc12`, the IC50 in assay [1] was found to be 46 nM; in assay [2], 31 nM. The ED50 in assay [3] was >30 mg/kg and 10 mg/kg. Further, the GABA shift in [4] is 1.5.

With `O=C(NCc1cccnc1)C1=C(O)CCn2c1nc1ccccc12`, the results for the IC50 in assay [1] and in assay [2] were 150 nM and 140 nM, respectively. Besides, the ED50 in [3] (Mus sp., read-out: ED50) is > 10 mg/kg. Further, the GABA shift in assay [5] is 1.1.

As for `Cc1cc(N(C)C)ccc1NC(=O)C1=C(O)CCn2c1nc1ccccc12`, the values for the IC50 in assay [1] and in assay [2] were 4000 nM and 1500 nM, respectively. In assay [5], the GABA shift stood at 2.7.

`O=C1CCN2C(=C1C(=O)Nc1ccccc1)Nc1ccccc12`: the ED50 in assay [6] is >30 mg/kg and 10 mg/kg; in [3] (Mus sp., read-out: ED50) it was 5.2 mg/kg; in [7], 10 mg/kg. The minimal effective dose in assay [8] is > 10 mg/kg; in assay [9] it was 10 mg/kg. Also, the GABA shift in [4] worked out at 1.5.

Take `O=C(Nc1ccncc1)c1c(O)ccn2c1nc1ccccc12`: the half-inhibitory concentration (IC50) in assay [1] was found to be 260 nM; in assay [2] it was 150 nM. Moreover, in [3] (Mus sp., read-out: ED50), the ED50 was > 10 mg/kg. Besides, the GABA shift in assay [5] was 1.7.

For `C[n+]1ccc(NC(=O)C2=C(O)CCn3c2nc2ccccc23)cc1`, the IC50 is 6300 nM in assay [1] and 3100 nM in assay [2]. The ED50 in [3] (Mus sp., read-out: ED50) was > 10 mg/kg. In [5], the GABA shift came to 2.

In the case of `Nc1ccc(NC(=O)C2=C(O)CCn3c2nc2ccccc23)cc1`, the IC50 in [1] amounted to 13000 nM; in assay [2], 3400 nM. The GABA shift in assay [5] was 3.8.

On to `O=C(NCc1ccncc1)C1=C(O)CCn2c1nc1ccccc12`, for which the IC50 came out at 65 nM in assay [1] and 69 nM in [2]. Besides, the ED50 in [3] (Mus sp., read-out: ED50) was > 10 mg/kg. Also, in assay [5], the GABA shift came out at 0.9.

Turning to `O=C(Nc1ccncc1)C1=C(O)CCn2c1nc1ccccc12`, the IC50 in assay [1] worked out at 160 nM; in assay [2], 78 nM. For the same compound, the ED50 in [6] (read-out: ED50) is > 30 mg/kg; in assay [3], 3.1 mg/kg and 7.8 mg/kg. In addition, the minimal effective dose in [10] was > 60 mg/kg; in assay [8], 10 mg/kg; in [9], 3 mg/kg. For the same compound, the GABA shift in assay [5] turned out to be 2.1.

`CN(C)c1ccccc1NC(=O)C1=C(O)CCn2c1nc1ccccc12` came in with an IC50 in [1] of 10000 nM. In addition, in [3], the ED50 is 4.9 mg/kg and 10 mg/kg.

As for `CCN1C2=C(C(=O)Nc3ccncc3)C(=O)CCN2c2ccccc21`, the IC50 turned out to be 80 nM in assay [1] and 27 nM in assay [2]. The values for the minimal effective dose in assay [10], in assay [8] and in [9] were 10 mg/kg, 3 mg/kg and 3 mg/kg, respectively. Besides, the GABA shift in [5] was 3.

On to `CN1C(=O)CN=C(c2ccccc2)c2cc(Cl)ccc21` [DIAZEPAM], for which the 50% effective dose (ED50) in [3] is 0.11 mg/kg and 0.3 mg/kg. In addition, the minimal effective dose in assay [11] and in assay [12] was 5 mg/kg in each case.

On to `Nc1ccccc1NC(=O)C1=C(O)CCn2c1nc1ccccc12`, for which the figures for the IC50 in assay [1] and in assay [2] were 50 nM and 33 nM, respectively. Moreover, the GABA shift in assay [4] was found to be 1.5.

Take `CN(C)c1ccc(NC(=O)C2=C(O)CCn3c2nc2ccccc23)c(F)c1`: the values for the IC50 in [1] and in assay [2] were 120 nM and 87 nM, respectively. Besides, the GABA shift in [5] was determined as 1.4.

On to `CN(C)c1ccc(NC(=O)C2=C3N(C)c4ccccc4N3CCC2=O)cc1`, for which the IC50 in assay [1] was 29 nM; in assay [2] it was 16 nM. In addition, the GABA shift in assay [4] worked out at 1.8.

As for `O=C(Nc1ccncc1F)C1=C(O)CCn2c1nc1ccccc12`, the 50% inhibitory concentration (IC50) amounted to 53 nM in assay [1] and 20 nM in assay [2]. Also, in [5], the GABA shift came to 2.6.

Consider `O=C(Nc1ccnc(Cl)c1)C1=C(O)CCn2c1nc1ccccc12`, for which the IC50 in assay [1] came out at 68 nM; in [2], 65 nM. For the same compound, in assay [3], the ED50 is 3.7 mg/kg and 10 mg/kg. Further, the GABA shift in [5] amounted to 1.1.

`O=C(Nc1ccncn1)C1=C(O)CCn2c1nc1ccccc12`: the results for the IC50 in assay [1] and in assay [2] were 480 nM and 370 nM, respectively. Further, the ED50 in assay [3] was 10 mg/kg; in assay [3] (Mus sp., read-out: ED50), > 10 mg/kg. In assay [5], the GABA shift was found to be 1.3.

For `O=C(Nc1ccc(C(=O)O)cc1)C1=C(O)CCn2c1nc1ccccc12`, the IC50 in [1] and in assay [2] was > 10000 nM in each case. Further, the ED50 in assay [3] was >30 mg/kg and 10 mg/kg.

Consider `Cc1cnccc1NC(=O)C1=C(O)CCn2c1nc1ccccc12`, for which the values for the IC50 in assay [1] and in assay [2] were 7100 nM and 12000 nM, respectively. In assay [3] (Mus sp., read-out: ED50), the ED50 is > 10 mg/kg. In addition, the GABA shift in assay [5] amounted to 0.6.

On to `CN(C)c1ccc(NC(=O)C2=C(O)CCn3c2nc2ccccc23)cc1`, for which the concentration for half-maximal inhibition (IC50) in assay [1] turned out to be 270 nM; in assay [2] it was 210 nM. For the same compound, the ED50 in [6] is >30 mg/kg and 10 mg/kg. For the same compound, the minimal effective dose in assay [8] is 10 mg/kg; in assay [9] it was 3 mg/kg. The GABA shift in assay [5] is 1.2.

As for `O=C(Nc1ncccn1)C1=C(O)CCn2c1nc1ccccc12`, the IC50 in assay [1] amounted to 54 nM; in assay [2], 50 nM. The GABA shift in [5] was 1.1.

Turning to `CN(C)c1cccc(NC(=O)C2=C(O)CCn3c2nc2ccccc23)c1`, the IC50 came to 37 nM in [1] and 25 nM in [2]. The GABA shift in assay [5] is 1.5.

As for `O=C(Nc1cnccn1)C1=C(O)CCn2c1nc1ccccc12`, the results for the IC50 in [1] and in [2] were 360 nM and 400 nM, respectively. Further, in assay [3] (Mus sp., read-out: ED50), the ED50 was > 10 mg/kg. Besides, the GABA shift in assay [5] is 0.9.

Consider `O=C(Nc1cccnc1)C1=C(O)CCn2c1nc1ccccc12`, for which the figures for the IC50 in assay [1] and in assay [2] were 51 nM and 48 nM, respectively. In addition, the GABA shift in assay [5] is 1.1.

For the compound `O=C(Nc1ccccn1)C1=C(O)CCn2c1nc1ccccc12`, the IC50 was found to be 59 nM in [1] and 36 nM in assay [2]. Besides, the ED50 in assay [3] was 10 mg/kg; in assay [3] (Mus sp., read-out: ED50) it was 11.2 mg/kg. Besides, the GABA shift in assay [5] came to 1.7.

Take `O=C(Nc1ccncc1Cl)C1=C(O)CCn2c1nc1ccccc12`: the results for the IC50 in assay [1] and in assay [2] were 220 nM and 100 nM, respectively. In addition, the GABA shift in assay [5] came out at 2.2.
